Results as given in patent publication US10189809B2, “SGC stimulators” (Ironwood Pharmaceuticals, Inc., priority 2010, dated 2019).
Like-named read-outs stand apart in the source and are kept apart here.

How the values were obtained:
[1] = biological target: T1, soluble guanylate cyclase (sGC) (Homo sapiens (Human), UniProt Q02108+Q02153); experiment: sGC-HEK-cGMP assay run in the absence of SNP (HEK WC assay); type: cell-based; settings: compound at 30 μM, absence of SNP
Procedure: (§1) Human embryonic kidney cells (HEK293), endogenously expressing soluble guanylate cyclase (sGC), were used to evaluate the activity of test compounds. Compounds stimulating the sGC receptor should cause an increase in the intracellular concentration of cGMP. HEK 293 cells were seeded in Dulbecco's Modification of Eagle's Medium supplemented with fetal bovine serum (10% final) and L-glutamine (2 mM final) in a 200 μL volume at a density of 1×10^5 cells/well in a poly-D-lysine coated 96 well flat bottom plate and grown overnight at 37° C. Medium was aspirated and cells were washed with 1× Hank's Buffered Saline Salt Solution (200 μL). Cells were then incubated for 15 minutes at 37° C. with 0.5 mM 3-isobutyl-1-methylxanthine (200 μL). Test article was then added to the assay mixture (2 μL) and incubated at 37° C. for 10 minutes. After the 10 minute incubation, the assay mixture was aspirated and 0.1M HCl (200 μL) was added to the cells. The plate was incubated at 4° C. for 30 minutes in the 0.1M HCl to stop the reaction and lysed the cells. The plates were then centrifuged at 1,200 g for 5 minutes at room temperature. Supernatants were collected and transferred to a new flat bottom 96 well plate for analysis. Vehicle controls were carried out using DMSO (1%). A known sGC stimulator, BAY 41-2272, was used as the positive control. Samples were diluted with an equal volume of 1 M Ammonium Acetate (pH 7) to neutralize samples for better chromatography. A 2× cGMP standard curve was prepared in 0.1 M HCl and then diluted with an equal volume of 1 M Ammonium Acetate, with the following final concentrations in nM: 1024, 512, 256, 128, 64, 32, 16, 8, 4, 2, 1. cGMP concentrations were determined from each sample using the LC/MS conditions (Table 2 below) and calculated standard curve. EC50 values were calculated from concentration-response curves generated with GraphPad Prism Software.

[2] = biological target: T1, soluble guanylate cyclase (sGC); experiment: sGC-HEK-cGMP assay run with SNP incubation (HEK WC assay); type: cell-based; settings: for HEK WC Assay (fold increase at 30 μM in the presence of 10 μM SNP): compound at 30 μM; for EC50: in the presence of 10 uM SNP
Procedure: as §1, with “article and sodium nitroprusside were” for “article was”, “(2 μL each)” for “(2 μL)”, “(1%). […]” for “(1%). A known sGC stimulator, BAY 41-2272, was used as the positive control.”, “chromatography. […]” for “chromatography. A 2× cGMP standard curve was prepared in 0.1 M HCl and then diluted with an equal volume of 1 M Ammonium Acetate, with the following final concentrations in nM: 1024, 512, 256, 128, 64, 32, 16, 8, 4, 2, 1. cGMP concentrations were determined from each sample using the LC/MS conditions (Table 2 below) and calculated standard curve.”

[3] = tested on: Thoracic aortic rings; experiment: Alternative thoracic aortic rings assay (Example 19b; resting tension as 100% inhibition); parameters: species or system rat; settings: Rattus norvegicus, Table 10B
Procedure: Thoracic aortic rings were dissected from anesthetized (isoflurane) male Sprague-Dawley rats weighing 275-299 g. Tissues were immediately transferred to ice-cold Krebs-Henseleit solution, which had been aerated with 95% O2 and 5% CO2 for 30 minutes. Following removal of connective tissue, aortic sections were cut into 4 rings (˜2 mm each) and suspended on 2 L-shaped hooks, with one hook fixed at the bottom of the tissue bath (Schuler Organ Bath, Harvard Apparatus) and the other connected to a force transducer (F30 Force Transducer, Harvard Apparatus). Baths contained Krebs Henseleit solution (10 mL) heated to 37° C. and aerated with 95% O2 and 5% CO2. Rings were brought to an initial tension of 0.3-0.5 g and gradually raised to a resting tension of 1.0 g over 60 minutes. Rings were rinsed with Krebs Henseleit solution (heated to 37° C. and aerated with 95% O2 and 5% CO2) at 15 minute intervals until a stable baseline was obtained. Rings were considered to be stable after a resting tension of 1.0 g was maintained (for approximately 10 minutes) without need for adjustment. Rings were then contracted with 100 ng/mL phenylephrine by adding 100 uL of a 10 μg/mL phenylephrine stock solution. Tissues achieving a stable contraction were then treated in a cumulative, dose dependent manner with test compounds prepared in dimethylsulfoxide (DMSO). In some cases, tissues were rinsed three times over a 5 minute period with Krebs-Heinseleit's solution (heated to 37° C. and aerated with 95% O2 and 5% CO2), allowed to stabilize at baseline, and then used for characterization of other test articles or DMSO effects. All data were collected using the HSE-ACAD software provided by Harvard Apparatus. […] EC50 values were calculated from concentration-response curves generated with GraphPad Prism Software.

[4] = read-out: HEK WC Assay (% Emax at 10 μM with 10 uM SNP)
[5] = read-out: HEK WC Assay (% Emax at 30 μM with 10 uM SNP)
[6] = read-out: HEK WC Assay (% Emax at 1 μM with 10 uM SNP)

T1 sequence (Q02153 whole entry): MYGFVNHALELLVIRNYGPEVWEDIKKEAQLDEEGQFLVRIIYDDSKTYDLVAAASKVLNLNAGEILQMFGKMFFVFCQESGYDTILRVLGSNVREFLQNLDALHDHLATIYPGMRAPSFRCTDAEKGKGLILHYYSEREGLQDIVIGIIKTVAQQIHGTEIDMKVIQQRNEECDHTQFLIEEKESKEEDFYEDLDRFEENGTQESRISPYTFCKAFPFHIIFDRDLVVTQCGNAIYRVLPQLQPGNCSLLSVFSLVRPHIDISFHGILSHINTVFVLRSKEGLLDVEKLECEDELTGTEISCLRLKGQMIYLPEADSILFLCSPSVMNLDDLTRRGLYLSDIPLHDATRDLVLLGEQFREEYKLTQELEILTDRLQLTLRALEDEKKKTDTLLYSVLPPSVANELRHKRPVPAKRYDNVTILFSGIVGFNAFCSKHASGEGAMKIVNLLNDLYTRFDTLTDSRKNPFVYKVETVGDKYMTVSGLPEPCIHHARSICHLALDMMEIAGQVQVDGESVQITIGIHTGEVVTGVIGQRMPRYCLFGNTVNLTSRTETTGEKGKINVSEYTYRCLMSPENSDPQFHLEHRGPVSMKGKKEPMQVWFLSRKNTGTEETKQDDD
T1 sequence (Q02108 whole entry): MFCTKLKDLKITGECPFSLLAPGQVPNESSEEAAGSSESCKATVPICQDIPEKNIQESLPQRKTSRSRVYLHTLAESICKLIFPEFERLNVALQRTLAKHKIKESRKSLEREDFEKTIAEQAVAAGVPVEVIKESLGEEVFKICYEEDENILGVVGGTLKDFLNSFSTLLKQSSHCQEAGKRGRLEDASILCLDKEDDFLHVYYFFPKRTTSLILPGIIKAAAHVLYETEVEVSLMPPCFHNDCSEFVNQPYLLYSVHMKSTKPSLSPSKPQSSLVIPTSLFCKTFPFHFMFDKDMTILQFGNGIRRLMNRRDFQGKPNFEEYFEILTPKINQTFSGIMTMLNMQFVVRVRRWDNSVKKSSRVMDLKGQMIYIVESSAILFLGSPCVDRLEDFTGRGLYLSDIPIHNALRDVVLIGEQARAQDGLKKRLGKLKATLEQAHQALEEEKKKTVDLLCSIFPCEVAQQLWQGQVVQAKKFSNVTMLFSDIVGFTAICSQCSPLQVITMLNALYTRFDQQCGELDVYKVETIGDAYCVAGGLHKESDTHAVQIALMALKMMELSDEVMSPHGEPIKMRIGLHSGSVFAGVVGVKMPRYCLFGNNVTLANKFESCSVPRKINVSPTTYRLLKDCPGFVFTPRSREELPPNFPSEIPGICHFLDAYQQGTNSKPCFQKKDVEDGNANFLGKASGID

HEK WC Assay (fold increase at 30 μM in the absence of SNP) [1]	HEK WC Assay (fold increase at 30 μM in the presence of 10 μM SNP) [2]	Emax [2, 4] [%]	Emax [2, 5] [%]	EC50 [2] [µM]	Emax [2, 6] [%]	EC50 ([3]; read-out: Aortic Ring EC50) [µM]	SMILES	inhibition at 1 µM ([3]; 1 μM, read-out: Percent Relaxation at 1 μM) [%]	inhibition at 3 µM ([3]; 3 μM, read-out: Percent Relaxation at 3 μM) [%]
B (B = 1 to <2 fold increase)	B (B = 1 to <2 fold increase)	0 to 10	0 to 10	–	–	–	Fc1ccccc1Cn1nc(-c2cccc(Br)n2)cc1-c1ccccn1 [Compound I-308, 2-Bromo-6-(1-(2-fluorobenzyl)-5-(pyridin-2-yl)-1H-pyrazol-3-yl)pyridine]	–	–
B (B = 1 to <2 fold increase)	C (C = 2 to <5 fold increase)	0 to 10	0 to 10	–	–	–	Fc1ccccc1Cn1nc(-c2ccccn2)cc1-c1cncs1 [Compound I-311]	–	–
C (C = 2 to <5 fold increase)	C (C = 2 to <5 fold increase)	0 to 10	0 to 10	–	–	–	Fc1ccccc1Cn1nc(-c2ccccn2)cc1-c1cccc(Br)n1 [Compound I-313, 2-Bromo-6-(1-(2-fluorobenzyl)-3-(pyridin-2-yl)-1H-pyrazol-5-yl)pyridine]	–	–
C (C = 2 to <5 fold increase)	E (E = 10 to <20 fold increase)	40 to 60	40 to 60	< 20	10 to 20	–	Oc1ccnc(-c2cc(-c3ccon3)n(Cc3ccccc3F)n2)n1 [Compound I-160, 2-(1-(2-fluorobenzyl)-5-(isoxazol-3-yl)-1H-pyrazol-3-yl)pyrimidin-4-ol]	–	–
B (B = 1 to <2 fold increase)	C (C = 2 to <5 fold increase)	0 to 10	0 to 10	900 to 1200	0 to 10	–	Oc1ccccc1Cn1nc(-c2ncccn2)cc1-c1ccon1 [Compound I-207]	–	–
B (B = 1 to <2 fold increase)	B (B = 1 to <2 fold increase)	0 to 10	10 to 20	–	–	–	Nc1cc(O)nc(-c2cc(-c3ccon3)n(Cc3ccccc3F)n2)n1 [Compound I-154]	–	–
B (B = 1 to <2 fold increase)	C (C = 2 to <5 fold increase)	0 to 10	0 to 10	–	–	–	Fc1ccccc1Cn1nc(-c2ccccn2)cc1N1CCC1 [Compound I-287]	–	–
C (C = 2 to <5 fold increase)	E (E = 10 to <20 fold increase)	20 to 40	20 to 40	60 to 100	0 to 10	–	Nc1nc(-c2cc(-c3ccon3)n(Cc3ccccc3F)n2)ncc1NC(=O)[C@@H]1CCCN1 [Compound I-225]	–	–
B (B = 1 to <2 fold increase)	B (B = 1 to <2 fold increase)	0 to 10	0 to 10	–	–	–	CCOc1cnc(-c2cc(-c3ncccn3)nn2Cc2ccccc2F)o1 [Compound I-292]	–	–
C (C = 2 to <5 fold increase)	C (C = 2 to <5 fold increase)	0 to 10	0 to 10	–	–	–	Fc1ccccc1Cn1nc(-c2ncccn2)cc1C1CCC1 [Compound I-307]	–	–
B (B = 1 to <2 fold increase)	C (C = 2 to <5 fold increase)	10 to 20	20 to 40	–	–	–	Fc1ccccc1Cn1nc(-c2ncccn2)cc1C1=NCCO1 [Compound I-290]	–	–
C (C = 2 to <5 fold increase)	E (E = 10 to <20 fold increase)	10 to 20	10 to 20	100 to 300	0 to 10	–	Nc1nc(-c2cc(-c3ccon3)n(Cc3ccccc3F)n2)ncc1NCc1ccccc1 [Compound I-223]	–	–
C (C = 2 to <5 fold increase)	F (F = 20 to <30 fold increase)	60 to 80	60 to 80	< 20	–	–	Cc1cc(Cl)nc(-c2cc(-c3ccon3)n(Cc3ccccc3F)n2)n1 [Compound I-299]	–	–
C (C = 2 to <5 fold increase)	E (E = 10 to <20 fold increase)	40 to 60	80 to 100	< 20	20 to 40	–	CC(C)(C)C(=O)Nc1cnc(-c2cc(-c3ncco3)n(Cc3ccccc3F)n2)nc1N [Compound I-191]	–	–
C (C = 2 to <5 fold increase)	E (E = 10 to <20 fold increase)	20 to 40	20 to 40	–	–	–	CC(C)(C)OC(=O)Nc1cnc(-c2cc(-c3ccon3)n(Cc3ccccc3F)n2)nc1O [Compound I-164]	–	–
B (B = 1 to <2 fold increase)	B (B = 1 to <2 fold increase)	0 to 10	0 to 10	–	–	–	COc1oc(-c2cc(-c3ncccn3)nn2Cc2ccccc2F)nc1C [Compound I-291]	–	–
E (E = 10 to <20 fold increase)	E (E = 10 to <20 fold increase)	80 to 100	80 to 100	< 20	60 to 80	–	Nc1nc(-c2cc(-c3ccon3)n(Cc3ccccc3F)n2)ncc1NC(=O)c1ccc(Cl)cc1 [Compound I-182]	–	–
E (E = 10 to <20 fold increase)	E (E = 10 to <20 fold increase)	60 to 80	80 to 100	< 20	40 to 60	–	Nc1nc(-c2cc(-c3ccon3)n(Cc3ccccc3F)n2)ncc1NC(=O)c1cccnc1 [Compound I-179]	–	–
–	–	40 to 60	80 to 100	< 20	–	< 2	Cc1cnc(-c2cc(-c3ccon3)n(Cc3ccccc3F)n2)nc1N [Compound I-297]	20 to 40	60 to 80
